#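 Briefly, cells in 96-well plates were exposed to five compound concentrations for 48 h, and endpoints were estimated by linear interpolation. TGI: concentration producing complete growth inhibition.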
# Tests used:
# Test in all cases: NCI anticancer screen, dose series, 48 h
# [1] = test system: 786-0 renal
# [2] = test system: A498 renal
# [3] = test system: A549 NSCLC
# [4] = test system: ACHN renal
# [5] = test system: BT-549 breast
# [6] = test system: CAKI-1 renal
# [7] = test system: CCRF-CEM leukemia
# [8] = test system: COLO 205 colon
# [9] = test system: DU-145 prostate
# [10] = test system: EKVX NSCLC
# [11] = test system: HCC-2998 colon
# [12] = test system: HCT-116 colon
# [13] = test system: HCT-15 colon
# [14] = test system: HL-60(TB) leukemia
# [15] = test system: HOP-62 NSCLC
# [16] = test system: HOP-92 NSCLC
# [17] = test system: HS 578T breast
# [18] = test system: HT29 colon
# [19] = test system: IGROV1 ovarian
# [20] = test system: K-562 leukemia
# [21] = test system: KM12 colon
# [22] = test system: LOX IMVI melanoma
# [23] = test system: M14 melanoma
# [24] = test system: MALME-3M melanoma
# [25] = test system: MCF7 breast
# [26] = test system: MDA-MB-231 breast
# [27] = test system: MDA-MB-435
# [28] = test system: MDA-N
# [29] = test system: MOLT-4 leukemia
# [30] = test system: NCI-H226 lung
# [31] = test system: NCI-H23 lung
# [32] = test system: NCI-H460 lung
# [33] = test system: NCI-H522 lung
# [34] = test system: NCI/ADR-RES ovarian
# [35] = test system: OVCAR-3 ovarian
# [36] = test system: OVCAR-4 ovarian
# [37] = test system: OVCAR-5 ovarian
# [38] = test system: OVCAR-8 ovarian
# [39] = test system: PC-3 prostate
# [40] = test system: RXF 393 renal
# [41] = test system: SF-268 CNS
# [42] = test system: SF-295 CNS
# [43] = test system: SF-539 CNS
# [44] = test system: SK-MEL-2 melanoma
# [45] = test system: SK-MEL-28 melanoma
# [46] = test system: SK-MEL-5 melanoma
# [47] = test system: SK-OV-3 ovarian
# [48] = test system: SN12C renal
# [49] = test system: SNB-19 CNS
# [50] = test system: SNB-75 CNS
# [51] = test system: SW-620 colon
# [52] = test system: T-47D breast
# [53] = test system: TK-10 renal
# [54] = test system: U251 CNS
# [55] = test system: UACC-257 melanoma
# [56] = test system: UACC-62 melanoma
# [57] = test system: UO-31 renal
# [58] = test system: RPMI-8226 leukemia
structure (smiles),measurement,setting,value
C#CC[C@@H]1C(=O)N(Cc2ccc(OC)cc2)[C@@H](C(C)C)C(=O)N1Cc1ccc(OC)cc1,TGI,[1],> 100 µM
same,TGI,[2],> 100 µM
same,TGI,[3],> 100 µM
same,TGI,[4],> 100 µM
same,TGI,[5],93.7 µM
same,TGI,[6],> 100 µM
same,TGI,[7],36.2 µM
same,TGI,[8],37 µM
same,TGI,[9],> 100 µM
same,TGI,[10],69 µM
same,TGI,[11],> 100 µM
same,TGI,[12],> 100 µM
same,TGI,[13],> 100 µM
same,TGI,[14],8.53 µM
same,TGI,[15],> 100 µM
same,TGI,[16],> 100 µM
same,TGI,[17],> 100 µM
same,TGI,[18],55.1 µM
same,TGI,[19],> 100 µM
same,TGI,[20],> 100 µM
same,TGI,[21],> 100 µM
same,TGI,[22],> 100 µM
same,TGI,[23],> 100 µM
same,TGI,[24],> 100 µM
same,TGI,[25],54.9 µM
same,TGI,[26],> 100 µM
same,TGI,[27],> 100 µM
same,TGI,[28],67.1 µM
same,TGI,[29],34.7 µM
same,TGI,[30],> 100 µM
same,TGI,[31],> 100 µM
same,TGI,[32],> 100 µM
same,TGI,[33],99.5 µM
same,TGI,[34],> 100 µM
same,TGI,[35],> 100 µM
same,TGI,[36],> 100 µM
same,TGI,[37],> 100 µM
same,TGI,[38],> 100 µM
same,TGI,[39],> 100 µM
same,TGI,[40],25.6 µM
same,TGI,[41],> 100 µM
same,TGI,[42],> 100 µM
same,TGI,[43],> 100 µM
same,TGI,[44],55.1 µM
same,TGI,[45],> 100 µM
same,TGI,[46],30.3 µM
same,TGI,[47],> 100 µM
same,TGI,[48],> 100 µM
same,TGI,[49],> 100 µM
same,TGI,[50],95 µM
same,TGI,[51],> 100 µM
same,TGI,[52],51.1 µM
same,TGI,[53],> 100 µM
same,TGI,[54],> 100 µM
same,TGI,[55],> 100 µM
same,TGI,[56],> 100 µM
same,TGI,[57],> 100 µM
CCOC1OC(CO)C(O)CC1n1ccc(=O)[nH]c1=O (stereo not given),TGI,[1],> 100 µM
same,TGI,[2],> 100 µM
same,TGI,[3],> 100 µM
same,TGI,[4],> 100 µM
same,TGI,[5],> 100 µM
same,TGI,[6],> 100 µM
same,TGI,[8],> 100 µM
same,TGI,[9],> 100 µM
same,TGI,[10],> 100 µM
same,TGI,[11],> 100 µM
same,TGI,[12],> 100 µM
same,TGI,[13],> 100 µM
same,TGI,[16],> 100 µM
same,TGI,[17],> 100 µM
same,TGI,[18],> 100 µM
same,TGI,[19],> 100 µM
same,TGI,[20],> 100 µM
same,TGI,[21],> 100 µM
same,TGI,[22],> 100 µM
same,TGI,[23],> 100 µM
same,TGI,[24],> 100 µM
same,TGI,[25],> 100 µM
same,TGI,[26],> 100 µM
same,TGI,[27],> 100 µM
same,TGI,[28],> 100 µM
same,TGI,[30],> 100 µM
same,TGI,[31],> 100 µM
same,TGI,[32],> 100 µM
same,TGI,[33],> 100 µM
same,TGI,[34],> 100 µM
same,TGI,[35],> 100 µM
same,TGI,[36],> 100 µM
same,TGI,[37],> 100 µM
same,TGI,[38],> 100 µM
same,TGI,[39],> 100 µM
same,TGI,[58],> 100 µM
same,TGI,[40],> 100 µM
same,TGI,[41],> 100 µM
same,TGI,[42],> 100 µM
same,TGI,[43],> 100 µM
same,TGI,[44],> 100 µM
same,TGI,[45],> 100 µM
same,TGI,[46],> 100 µM
same,TGI,[48],> 100 µM
same,TGI,[49],> 100 µM
same,TGI,[50],> 100 µM
same,TGI,[51],> 100 µM
same,TGI,[52],> 100 µM
same,TGI,[53],> 100 µM
same,TGI,[54],> 100 µM
same,TGI,[55],> 100 µM
same,TGI,[56],> 100 µM
same,TGI,[57],> 100 µM

# Source: PubChem BioAssay (NCI)
